Our source for the IC50 and EC50 values is patent US20140249135A1, “PIM KINASE INHIBITORS AND METHODS OF THEIR USE” (NOVARTIS AG, priority 2007, published 2014).

“And” between values parts separate entries of the source, which are not always exact repeats. Equal entries are not always repeated.

One experiment addresses Pim2 kinase (Homo sapiens, UniProt Q9P1W9). Put plainly: Pim2 ATP depletion assay.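 Further: Luciferase-based luminescent readout of ATP remaining after PIM2 phosphorylates a BAD peptide, final 5 nM enzyme, 4 µM ATP, 10 µM peptide, 2.5% DMSO, run to roughly half ATP consumption.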 Format: biochemical. The following applies: read-out: IC50 (μM) PIM2.
The next experiment has as its target Pim1 kinase (Homo sapiens, UniProt P11309). Put plainly: Pim1 ATP depletion assay.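 Further: Luciferase-luciferin luminescence readout of residual ATP after PIM1 transfers phosphate to a peptide substrate, 40 µM ATP added, reaction run to roughly half ATP consumption.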 Particulars: Pim1 ATP depletion assay; read-out: IC50 (μM) PIM1. Format: biochemical.
For the next experiment, the target named is Pim3 kinase (Homo sapiens, UniProt Q86V86). Briefly: Pim3 ATP depletion assay. Format: biochemical. The following applies: read-out: IC50 (μM) PIM3.
Experiment [1] concerns the target T1, human full length PKCE enzyme (Homo sapiens, UniProt Q02156).
T1 construct: human full length PKCE enzyme purchased from InVitrogen; purchased InVitrogen
T1 sequence (Q02156 1-737): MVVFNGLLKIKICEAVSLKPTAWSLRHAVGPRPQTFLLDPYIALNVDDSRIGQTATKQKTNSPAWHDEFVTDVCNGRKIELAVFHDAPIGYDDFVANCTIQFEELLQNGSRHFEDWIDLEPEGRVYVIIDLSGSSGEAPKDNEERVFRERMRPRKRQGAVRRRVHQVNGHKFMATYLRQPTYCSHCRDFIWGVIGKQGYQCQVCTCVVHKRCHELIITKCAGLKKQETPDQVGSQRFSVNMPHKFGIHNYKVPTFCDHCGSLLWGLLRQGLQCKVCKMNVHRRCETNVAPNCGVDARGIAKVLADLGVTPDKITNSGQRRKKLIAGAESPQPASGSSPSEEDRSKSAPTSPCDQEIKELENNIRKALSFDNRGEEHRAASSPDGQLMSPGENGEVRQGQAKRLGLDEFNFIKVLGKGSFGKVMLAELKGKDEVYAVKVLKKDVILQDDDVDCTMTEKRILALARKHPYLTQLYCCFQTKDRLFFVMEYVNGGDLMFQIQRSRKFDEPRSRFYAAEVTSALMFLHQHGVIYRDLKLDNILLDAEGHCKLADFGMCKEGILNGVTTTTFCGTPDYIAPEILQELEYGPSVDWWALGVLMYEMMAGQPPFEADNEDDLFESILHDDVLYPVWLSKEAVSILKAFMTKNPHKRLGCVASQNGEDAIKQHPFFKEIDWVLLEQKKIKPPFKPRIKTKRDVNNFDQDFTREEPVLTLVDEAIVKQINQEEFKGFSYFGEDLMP
Put plainly: In vitro PKCE assay. Particulars: 10 nM enzyme, 40 uM peptide substrate, 20 uM ATP, KinaseGlo Plus readout; read-out: PKCε IC50. Format: biochemical. (In Kinase-Glo more light means more ATP remaining.)

In another experiment the test system is PC3 cells. Put plainly: Cell proliferation assay (CellTiter-Glo), PC3. Format: cell-based. The following applies: Homo sapiens, PC-3. Here is the method:
HEL 92.1.7 cells (ATTC No. TIB-180, an erythroleukemia line derived from malignant peripheral blood), MV4-11 cells (ATCC No. CRL-9591, a human acute monocytic leukemia line) and PC3 cells (ATCC No. CRL-1435, a human prostatic adenocarcinoma line) were cultured in RPMI1640 supplemented with 10% FBS, sodium pyruvate and antibiotics. Cells were plated in the same medium at a density of 1000 cells per well into 96 well tissue culture plates, with outside wells vacant, on the day of assay.
Test compounds supplied in DMSO were diluted into DMSO at 500 times the desired final concentrations before dilution into culture media to 2 times final concentrations. Equal volumes of 2× compounds were added to the cells in 96 well plates and incubated at 37° C. for 3 days.
After 3 days plates were equilibrated to room temperature and equal volume of CellTiter-Glow Reagent (Promega) was added to the culture wells. The plates were agitated briefly and luminescent signal was measured with luminometer. The percent inhibition of the signal seen in cells treated with DMSO alone vs. cells treated with control compound was calculated and used to determine EC50 values (i.e., the concentration of a test compound that is required to obtain 50% of the maximum effect in the cells) for tested compounds, as shown in Example 763.
Background: Cellular ATP, detected with luciferase, serves as a proxy for viable cell number.

In a further experiment the target is KDR kinase (Homo sapiens, UniProt P35968). Briefly: KDR AlphaScreen assay. The following applies: KDR IC50 (μM).
KDR kinase, sequence (P35968 20-1356): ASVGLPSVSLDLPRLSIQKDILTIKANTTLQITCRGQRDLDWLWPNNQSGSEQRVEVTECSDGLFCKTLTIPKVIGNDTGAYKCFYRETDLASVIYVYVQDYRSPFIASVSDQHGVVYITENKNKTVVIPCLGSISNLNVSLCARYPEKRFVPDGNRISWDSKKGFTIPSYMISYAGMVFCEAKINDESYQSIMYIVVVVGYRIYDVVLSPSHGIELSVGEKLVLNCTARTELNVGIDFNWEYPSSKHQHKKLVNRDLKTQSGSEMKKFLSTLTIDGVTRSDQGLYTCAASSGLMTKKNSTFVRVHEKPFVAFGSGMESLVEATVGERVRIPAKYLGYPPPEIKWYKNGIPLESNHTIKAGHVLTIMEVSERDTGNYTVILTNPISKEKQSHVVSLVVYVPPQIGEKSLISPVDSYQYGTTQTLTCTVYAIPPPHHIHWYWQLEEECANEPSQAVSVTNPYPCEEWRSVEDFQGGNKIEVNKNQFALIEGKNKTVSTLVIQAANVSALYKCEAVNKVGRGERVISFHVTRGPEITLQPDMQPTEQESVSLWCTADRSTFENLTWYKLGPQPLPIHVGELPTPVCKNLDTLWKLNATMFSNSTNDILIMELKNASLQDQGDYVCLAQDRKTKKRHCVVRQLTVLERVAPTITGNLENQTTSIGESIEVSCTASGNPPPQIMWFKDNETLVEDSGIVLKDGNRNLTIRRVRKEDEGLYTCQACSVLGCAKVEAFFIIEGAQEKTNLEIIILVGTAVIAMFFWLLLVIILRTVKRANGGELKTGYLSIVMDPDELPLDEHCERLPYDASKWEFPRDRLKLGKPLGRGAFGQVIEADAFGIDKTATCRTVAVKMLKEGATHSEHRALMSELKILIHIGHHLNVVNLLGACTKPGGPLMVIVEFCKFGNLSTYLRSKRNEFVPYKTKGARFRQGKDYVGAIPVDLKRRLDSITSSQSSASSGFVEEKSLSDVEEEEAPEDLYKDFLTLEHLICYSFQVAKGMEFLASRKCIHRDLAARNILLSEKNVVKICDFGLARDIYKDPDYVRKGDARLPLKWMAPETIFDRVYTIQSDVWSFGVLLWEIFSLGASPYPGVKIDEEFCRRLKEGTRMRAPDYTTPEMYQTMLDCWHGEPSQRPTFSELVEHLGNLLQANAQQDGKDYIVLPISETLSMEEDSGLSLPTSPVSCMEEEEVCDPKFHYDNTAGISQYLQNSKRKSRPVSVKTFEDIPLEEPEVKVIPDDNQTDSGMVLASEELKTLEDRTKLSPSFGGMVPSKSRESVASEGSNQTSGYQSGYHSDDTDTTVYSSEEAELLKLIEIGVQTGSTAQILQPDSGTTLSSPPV

Pim1 kinase, sequence (P11309 whole entry): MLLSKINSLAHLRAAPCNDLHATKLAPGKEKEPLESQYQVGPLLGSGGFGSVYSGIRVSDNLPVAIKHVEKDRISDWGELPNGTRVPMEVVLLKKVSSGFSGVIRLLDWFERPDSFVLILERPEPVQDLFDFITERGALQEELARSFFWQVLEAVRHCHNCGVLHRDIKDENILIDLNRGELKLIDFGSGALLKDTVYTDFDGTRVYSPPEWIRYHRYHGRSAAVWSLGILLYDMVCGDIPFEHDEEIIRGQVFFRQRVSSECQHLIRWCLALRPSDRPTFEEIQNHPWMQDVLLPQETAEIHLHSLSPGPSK
Pim2 kinase, sequence (Q9P1W9 whole entry): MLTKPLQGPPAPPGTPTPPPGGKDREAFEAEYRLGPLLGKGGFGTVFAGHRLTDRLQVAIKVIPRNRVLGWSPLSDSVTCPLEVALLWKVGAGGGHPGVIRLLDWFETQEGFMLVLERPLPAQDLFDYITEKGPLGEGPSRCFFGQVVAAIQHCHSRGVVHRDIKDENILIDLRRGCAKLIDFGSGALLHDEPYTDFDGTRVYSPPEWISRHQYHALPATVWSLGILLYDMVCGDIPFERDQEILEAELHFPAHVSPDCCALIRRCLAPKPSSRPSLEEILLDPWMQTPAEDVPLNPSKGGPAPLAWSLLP

As a reminder, the IC50 is the concentration that inhibits the measured activity by half. A word on the EC50: it is the concentration at which the effect is half-maximal. A high value points to lower potency in that assay. Consider `Nc1nc(N)c(C(=O)Nc2ccncc2N2CCCCC2)nc1Cl` [Example 120, 3,5-diamino-6-chloro-N-(3-piperidin-1-ylpyridin-4-yl)-pyrazine-2-carboxamide], for which the IC50 at Pim2 kinase is 1 to 10 µM; at Pim1 kinase, below 1 µM; on Pim3 kinase, below 1 µM; in experiment [1], 1000 to 10000 nM. The molecule also registered an EC50 with PC3 cells of 1 to 5 µM.

As for `Nc1nccnc1C(=O)Nc1ccncc1N1CCCCC1` [Example 122, 3-amino-N-(3-piperidin-1-yl-pyridin-4-yl)pyrazine-2-carbox-amide], the half-inhibitory concentration (IC50) was 1 to 10 µM on Pim2 kinase, below 1 µM on Pim1 kinase, 1 to 10 µM on Pim3 kinase and below 1000 nM in experiment [1]. Further, the half-maximal effective concentration (EC50) in the experiment with PC3 cells was below 1 µM.

`CN(C)C1CCN(c2ccncc2NC(=O)c2nccnc2N)CC1` [Example 126, 3-amino-N-{4-[4-(dimethyl-amino)piperidin-1-yl]pyridin-3-yl}pyrazine-2-carboxamide]: the half-maximal inhibitory concentration (IC50) was 1 to 10 µM on Pim2 kinase; below 1 µM at Pim1 kinase; below 1 µM on Pim3 kinase; 1 to 10 µM against KDR kinase; below 1000 nM in experiment [1]. Besides, in the experiment with PC3 cells, the EC50 lay in the range of 5 to 10 µM.

For `Nc1nccnc1C(=O)Nc1cnccc1N1CCC(N)CC1` [Example 193, 3-amino-N-[4-(4-aminopiperidin-1-yl)pyridin-3-yl]pyrazine-2-carboxamide], the IC50 was 1 to 10 µM at Pim2 kinase, below 1 µM on Pim1 kinase, below 1 µM at Pim3 kinase and below 1000 nM in experiment [1]. This molecule also yielded an EC50 in the experiment on PC3 cells below 1 µM.

Take `Nc1nccnc1C(=O)Nc1ccccc1N1CCCC(N)C1` (stereo not drawn) [Example 195, 3-amino-N-[2-(3-aminopiperidin-1-yl)phenyl]pyrazine-2-carboxamide]: the IC50 on Pim2 kinase was below 1 µM; at Pim1 kinase it was below 1 µM; at Pim3 kinase, below 1 µM; at KDR kinase it was above 25 µM; in experiment [1], below 1000 nM. The molecule also registered an EC50 in the experiment with PC3 cells above 10 µM.

Take `Nc1nccnc1C(=O)Nc1ccccc1N1CCC[C@H](N)C1` [Example 201, 3-amino-N-{2-[(3S)-3-amino-piperidin-1-yl]phenyl}pyrazine-2-carboxamide]: the IC50 is below 1 µM on Pim2 kinase; below 1 µM at Pim1 kinase; below 1 µM on Pim3 kinase; 10 to 25 µM against KDR kinase; below 1000 nM in experiment [1]. In addition, in the experiment with PC3 cells, the concentration for a half-maximal effect (EC50) lay in the range of 5 to 10 µM.

With `Nc1nccnc1C(=O)Nc1ccccc1N1CCNCC1` [Example 202, 3-amino-N-(2-piperazin-1-ylphenyl)pyrazine-2-carbox-amide], the half-inhibitory concentration (IC50) on Pim2 kinase is above 25 µM; at Pim1 kinase, 1 to 10 µM; at Pim3 kinase it was 1 to 10 µM; against KDR kinase it was above 25 µM; in experiment [1], below 1000 nM. The EC50 with PC3 cells is 1 to 5 µM.

On to `Nc1nccnc1C(=O)Nc1ccccc1N1CCC(N)CC1` [Example 203, 3-amino-N-[2-(4-aminopiperidin-1-yl)phenyl]pyrazine-2-carboxamide], for which the IC50 on Pim2 kinase was 1 to 10 µM; on Pim1 kinase, below 1 µM; on Pim3 kinase it was below 1 µM; against KDR kinase it was above 25 µM; in experiment [1], below 1000 nM. Besides, the 50% effective concentration (EC50) in the experiment on PC3 cells is below 1 µM.

On to `Nc1ncc(Br)nc1C(=O)Nc1ccccc1N1CCC(N)CC1` [Example 205, 3-amino-N-[2-(4-aminopiperidin-1-yl)phenyl]-6-bromopyrazine-2-carboxamide], for which the half-maximal inhibitory concentration (IC50) is below 1 µM on Pim2 kinase; below 1 µM on Pim1 kinase; below 1 µM on Pim3 kinase; 1 to 10 µM on KDR kinase; below 1000 nM in experiment [1]. The molecule further yielded an EC50 in the experiment on PC3 cells below 1 µM.

As for `Nc1nccnc1C(=O)Nc1cc(Cl)ccc1N1CCC(N)CC1` [Example 214, 3-amino-N-[2-(4-aminopiperidin-1-yl)-5-chlorophenyl]pyrazine-2-carboxamide], the IC50 at Pim2 kinase is 1 to 10 µM; on Pim1 kinase, below 1 µM; on Pim3 kinase it was below 1 µM; against KDR kinase, 10 to 25 µM; in experiment [1], below 1000 nM. In the experiment with PC3 cells, this molecule had a concentration for a half-maximal effect (EC50) of 1 to 5 µM.

Turning to `Cc1ccc(N2CCC(N)CC2)c(NC(=O)c2nccnc2N)c1` [Example 217, 3-amino-N-[2-(4-aminopiperidin-1-yl)-5-methylphenyl]pyrazine-2-carboxamide], the 50% inhibitory concentration (IC50) at Pim2 kinase was above 25 µM; on Pim1 kinase it was below 1 µM; at Pim3 kinase it was 1 to 10 µM; against KDR kinase it was > 25 µM and 10 to 25 µM; in experiment [1], 10000 to 25000 nM and < 1000 nM. The molecule also yielded an EC50 in the experiment on PC3 cells of 5 to 10 µM.

Consider `COc1ccc(N2CCC(N)CC2)c(NC(=O)c2nccnc2N)c1` [Example 222, 3-amino-N-[2-(4-aminopiperidin-1-yl)-5-methoxyphenyl]pyrazine-2-carboxamide], for which the IC50 on Pim2 kinase is 10 to 25 µM; on Pim1 kinase, below 1 µM; at Pim3 kinase it was below 1 µM; against KDR kinase it was above 25 µM; in experiment [1], below 1000 nM. Moreover, the EC50 in the experiment on PC3 cells was above 10 µM.

As for `Cc1ccc(NC(=O)c2nccnc2N)c(N2CCC(N)CC2)c1` [Example 228, 3-amino-N-[2-(4-aminopiperidin-1-yl)-4-methylphenyl]pyrazine-2-carboxamide], the IC50 was 10 to 25 µM on Pim2 kinase; below 1 µM on Pim1 kinase; below 1 µM on Pim3 kinase; 10 to 25 µM against KDR kinase; below 1000 nM in experiment [1]. Also, the EC50 in the experiment with PC3 cells lay in the range of 5 to 10 µM.

In the case of `Nc1ncc(-c2ccccc2F)nc1C(=O)Nc1cnccc1N1CCNCC1` [Example 363, 3-amino-6-(2-fluoro-phenyl)-pyrazine-2-carboxylic acid (4-piperazin-1-yl-pyridin-3-yl)-amide], the half-inhibitory concentration (IC50) at Pim1 kinase is below 1 µM; on Pim3 kinase, below 1 µM; against KDR kinase it was below 1 µM; in experiment [1], below 1000 nM. This molecule also had an EC50 with PC3 cells below 1 µM.

For `Nc1ncc(-c2ccccc2)nc1C(=O)Nc1cnccc1N1CCC(N)CC1` [Example 364, 3-amino-6-phenyl-pyrazine-2-carboxylic acid (4-amino-3,4,5,6-tetrahydro-2H-[1,4′]bi-pyridinyl-3′-yl)-amide], the IC50 at Pim1 kinase is below 1 µM; on Pim3 kinase, below 1 µM; on KDR kinase, < 1 µM and 1 to 10 µM; in experiment [1], below 1000 nM. In the experiment with PC3 cells, this molecule came in with an EC50 below 1 µM.

In the case of `COc1ccc(-c2cnc(N)c(C(=O)Nc3cnccc3N3CCC(N)CC3)n2)cc1` [Example 367, 3-amino-6-(4-methoxy-phenyl)-pyrazine-2-carboxylic acid (4-amino-3,4,5,6-tetra-hydro-2H-[1,4′]bipyridinyl-3′-yl)-amide], the 50% inhibitory concentration (IC50) on Pim1 kinase is below 1 µM; at Pim3 kinase, below 1 µM; against KDR kinase it was below 1 µM; in experiment [1], below 1000 nM. This molecule also came in with an EC50 with PC3 cells below 1 µM.

Take `Nc1ncc(-c2ccccc2F)nc1C(=O)Nc1cnccc1N1CCC(N)CC1` [Example 368, 3-amino-6-(2-fluoro-phenyl)-pyrazine-2-carboxylic acid (4-amino-3,4,5,6-tetrahydro-2H-[1,4′]bipyridinyl-3′-yl)-amide]: the IC50 at Pim1 kinase was below 1 µM; at Pim3 kinase, below 1 µM; on KDR kinase it was below 1 µM; in experiment [1], below 1000 nM. Further, the 50% effective concentration (EC50) in the experiment with PC3 cells is below 1 µM.

Turning to `COc1ccc(F)c(-c2cnc(N)c(C(=O)Nc3ccccc3N3CCNCC3)n2)c1` [Example 396, 3-amino-6-(2-fluoro-5-methoxy-phenyl)-pyrazine-2-carboxylic acid (2-piperazin-1-yl-phenyl)-amide], the half-inhibitory concentration (IC50) at Pim2 kinase is 1 to 10 µM; on Pim1 kinase, below 1 µM; at Pim3 kinase, below 1 µM. In the experiment on PC3 cells, this molecule came in with a concentration giving a half-maximal response (EC50) of 1 to 5 µM.
